{
  "source": "patent US20200164038A1",
  "about": "“MODIFIED NUCLEOSIDE, NUCLEOTIDE, AND NUCLEIC ACID COMPOSITIONS” (ModernaTX, Inc., priority 2011, published 2020)",
  "molecules": {"B1": {"name": "Gen2 G-CSF mmRNA: human G-CSF mRNA, SEQ ID NO: 6, modified with 5-methylcytidine and N1-methylpseudouridine (nucleic acid, listed as Homo sapiens)", "chain": "GGGAAAUAAGAGAGAAAAGAAGAGUAAGAAGAAAUAUAAGAGCCACCAUGGCCGGUCCCGCGACCCAAAGCCCCAUGAAACUUAUGGCCCUGCAGUUGCUGCUUUGGCACUCGGCCCUCUGGACAGUCCAAGAAGCGACUCCUCUCGGACCUGCCUCAUCGUUGCCGCAGUCAUUCCUUUUGAAGUGUCUGGAGCAGGUGCGAAAGAUUCAGGGCGAUGGAGCCGCACUCCAAGAGAAGCUCUGCGCGACAUACAAACUUUGCCAUCCCGAGGAGCUCGUACUGCUCGGGCACAGCUUGGGGAUUCCCUGGGCUCCUCUCUCGUCCUGUCCGUCGCAGGCUUUGCAGUUGGCAGGGUGCCUUUCCCAGCUCCACUCCGGUUUGUUCUUGUAUCAGGGACUGCUGCAAGCCCUUGAGGGAAUCUCGCCAGAAUUGGGCCCGACGCUGGACACGUUGCAGCUCGACGUGGCGGAUUUCGCAACAACCAUCUGGCAGCAGAUGGAGGAACUGGGGAUGGCACCCGCGCUGCAGCCCACGCAGGGGGCAAUGCCGGCCUUUGCGUCCGCGUUUCAGCGCAGGGCGGGUGGAGUCCUCGUAGCGAGCCACCUUCAAUCAUUUUUGGAAGUCUCGUACCGGGUGCUGAGACAUCUUGCGCAGCCGUGAAGCGCUGCCUUCUGCGGGGCUUGCCUUCUGGCCAUGCCCUUCUUCUCUCCCUUGCACCUGUACCUCUUGGUCUUUGAAUAAAGCCUGAGUAGGAAG", "modifications": "5-methylcytidine and N1-methylpseudouridine modified"}, "B2": {"name": "Unmodified G-CSF mRNA: human G-CSF mRNA, SEQ ID NO: 6, having no modifications (natural NTPs) (nucleic acid, listed as Homo sapiens)", "chain": "B1 chain"}, "B3": {"name": "100% modification: G-CSF mRNA (SEQ ID NO 6, Cap1) completely modified with 5mC and pseudoU (nucleic acid, listed as Homo sapiens)", "chain": "B1 chain", "modifications": "Cap1; 5-methylcytidine, pseudouridine"}, "B4": {"name": "G-CSF Gen 2: G-CSF mRNA SEQ ID NO 6, Cap1, fully modified with 5-methylcytosine and N1-methylpseudouridine (nucleic acid, listed as Homo sapiens)", "chain": "B1 chain", "modifications": "Cap1; 5-methylcytosine, N1-methylpseudouridine"}},
  "key": {"Factor IX": {"tested_on": "Factor IX", "assay": "Factor IX mRNA transfected in serum-free media, peptide detection by MALDI", "assay_type": "cell-based, human", "conditions": "8 peptides detected, 7 unique to Factor IX", "description": "The cell culture supernatant was collected and subjected to trypsin digestion before undergoing 2-dimensional HPLC separation of the peptides Matrix-assisted laser desorption/ionization was used to detect the peptides. 8 peptides were detected and 7 of the detected peptides are unique to Factor IX."}, "[1]": {"assay": "In vivo study of Factor IX mmRNA IM, serum Factor IX", "conditions": "mice IM, 2×100 ug/mouse in formulation buffer, 13 hours", "method": "Human Factor IX mmRNA (Gen1; fully modified 5-methylcytosine and pseudouridine) formulated in formulation buffer was delivered to mice via intramuscular injection.\nThe mice were bled at 13 hours after the intramuscular injection to determine the concentration of human the polypeptide in serum in pg/mL."}, "[2]": {"conditions": "for Serum Concentration 8-12 hours after administration: Factor IX; for Factor IX Protein Expression, Conc: mice IV, serum 8 hrs"}, "[3]": {"assay": "Intramuscular delivery of human EPO mRNA in buffer, serum human EPO", "assay_type": "in vivo, Sprague-Dawley rats", "conditions": "rats, 100 μg, 13 hours", "method": "(§1) Mice were intramuscularly or subcutaneously injected with 50 μl of the modified human EPO mRNA (h-EPO), modified luciferase mRNA (Luc) or the formulation buffer (F.Buffer) as described in the dosing chart Table 58. 13 hours post injection blood was collected and serum was analyzed to determine the amount human EPO for each mouse or rat."}, "[4]": {"assay": "Intramuscular and subcutaneous delivery of human EPO mRNA in buffer, serum human EPO", "assay_type": "in vivo, C57/BL6 mice", "conditions": "mice, 100 μg, 13 hours", "method": "as §1"}, "[5]": {"assay": "Duration of activity after intramuscular delivery, serum human EPO", "assay_type": "in vivo, Sprague-Dawley rats", "conditions": "rats, 100 μg, 24, 48 and 72 hour", "method": "The rats were bled 2, 6, 12, 24, 48 and 72 hours after the intramuscular injection to determine the concentration of human EPO in serum at a given time."}, "[6]": {"assay": "Human G-CSF modified RNA lipoplex comparison I.M., S.C., G-CSF ELISA 13 hours", "assay_type": "in vivo, C57/BL6 mice", "conditions": "mice I.M. or S.C., 100 μg, saline or lipoplex", "method": "A formulation containing 100 μg of either modified human G-CSF mRNA lipoplexed with 30% by volume of RNAIMAX™ with a 5-methylcytosine (5mc) and a pseudouridine (ψ) modification (G-CSF-Gen1-Lipoplex), modified human G-CSF mRNA with a 5mc and ψ modification in saline (G-CSF-Gen1-Saline), modified human G-CSF mRNA with a N1-5-methylcytosine (N1-5mc) and a ψ modification lipoplexed with 30% by volume of RNAIMAX™ (G-CSF-Gen2-Lipoplex), modified human G-CSF mRNA with a N1-5mc and ψ modification in saline (G-CSF-Gen2-Saline), modified luciferase with a 5mc and ψ modification lipoplexed with 30% by volume of RNAIMAX™ (Luc-Lipoplex), or modified luciferase mRNA with a 5mc and ψ modification in saline (Luc-Saline) was delivered intramuscularly (I.M.) or subcutaneously (S.C.) and a control group for each method of administration was giving a dose of 80 uL of the formulation buffer (F. Buffer) to C57/BL6 mice. 13 hours post injection serum and tissue from the site of injection were collected from each mouse and analyzed by G-CSF ELISA to compare human G-CSF protein levels. The results of the human G-CSF protein in mouse serum from the intramuscular administration and the subcutaneous administration results are shown in Table 55."}, "IFN-alpha": {"tested_on": "IFN-alpha", "assay": "Cytokine study PBMC, IFN-alpha production ELISA", "assay_type": "cell-based", "conditions": "human PBMC, Lipofectamine 2000", "method": "The plates were then incubated at 37 C.\nEach condition was done in duplicate\nShown in Tables 69 and 70 are the average from 2 separate PBMC donors of the G-CSF and IFN-alpha production over time as measured by specific ELISA."}, "neutrophil count": {"tested_on": "neutrophil count", "assay": "Intravenous administration of lipoplexed G-CSF mRNA, neutrophil count", "assay_type": "in vivo", "conditions": "mice IV, 50 ug RNA in 10% lipoplex at days 0, 2 and 4; day 5", "method": "Neutrophils were measured at days 1, 5 and 8. Controls included non-specific mammalian RNA or the formulation buffer alone (F.Buffer). The mice were bled at days 1, 5 and 8 to determine the effect of mRNA-encoded human G-CSF to increase neutrophil count. The dosing regimen is shown in Table 64 as are the resulting neutrophil counts (thousands/uL; K/uL)."}, "[7]": {"tested_on": "peripheral blood mononuclear cells (PBMC)", "assay": "In vitro PBMC study, percent modification: IFN-alpha and TNF-alpha by ELISA, PC ratio", "assay_type": "cell-based, human", "method": "The supernatant was harvested and run by ELISA 22 hours after transfection to determine the protein expression."}, "[8]": {"tested_on": "peripheral blood mononuclear cells (PBMC)", "assay": "Modified RNA transfected in PBMC: G-CSF by ELISA at 6 and 18 hours", "assay_type": "cell-based, human", "conditions": "Donor 2, 18 hours", "method": "(§2) 500 ng of G-CSF mRNA modified with 5-methylcytosine (5mC) and pseudouridine (pseudoU) or unmodified G-CSF mRNA was transfected with 0.4 uL of Lipofectamine 2000 into peripheral blood mononuclear cells (PBMC) from three normal blood donors (D1, D2, and D3). […] The supernatant was harvested 6 hours and 18 hours after transfection and run by ELISA to determine the protein expression. The expression of G-CSF, IFN-alpha, and TNF-alpha for Donor 1 is shown in Table 86, Donor 2 is shown in Table 87 and Donor 3 is shown in Table 88."}, "[9]": {"tested_on": "peripheral blood mononuclear cells (PBMC)", "assay_type": "cell-based, human", "method": "as §2"}, "[10]": {"tested_on": "Human primary foreskin fibroblasts (BJ fibroblasts)", "assay": "Innate immune response in BJ fibroblasts, repeat transfection (IFN-beta, IL-6)", "assay_type": "cell-based", "conditions": "daily transfection, Day 1"}, "Female BALB/C mice": {"tested_on": "Female BALB/C mice", "assay": "In vivo detection of innate immune response: human G-CSF and mouse IFN-alpha in serum", "conditions": "Protein: Cytokine Ratio", "experimental": "Blood is collected at 8 hours after dosing and using ELISA the protein levels of G-CSF and interferon-alpha (IFN-alpha) is determined by ELISA and are shown in Table 81."}},
  "note": "Where two headings read alike, the source gives them in different places.",
  "data": [
    {"molecule": "Factor IX Gen 1: Factor IX mRNA SEQ ID NO 10, Cap1, fully modified with 5-methylcytosine and pseudouridine", "values": [
      {"measurement": "expression of Factor IX protein", "setting": "Factor IX", "value": "able to express full-length Factor IX protein"}
    ]},
    {"molecule": "Factor IX: human Factor IX mRNA, SEQ ID NO: 10, polyA about 160 nt, Cap1, fully modified with 5-methylcytosine and pseudouridine", "values": [
      {"measurement": "concentration of Factor IX in serum", "setting": "[1]", "value": 1600, "unit": "pg/mL"},
      {"measurement": "Serum Concentration 8-12 hours after administration", "setting": "[2]; IM, 2 × 100 ug", "value": "~1.6", "unit": "ng/mL"},
      {"measurement": "Serum Concentration 8-12 hours after administration", "setting": "[2]; IV (LNP), 1 ug", "value": "~40", "unit": "ng/mL"},
      {"measurement": "Serum Concentration 8-12 hours after administration", "setting": "[2]; IV (LNP), 10 ug", "value": "~400", "unit": "ng/mL"},
      {"measurement": "Serum Concentration 8-12 hours after administration", "setting": "[2]; IV (LNP), 100 ug", "value": "~3,000-10,000 ng/ml"},
      {"measurement": "Factor IX Protein Expression, Conc", "setting": "[2]; LNP NPA-029-1, 10 ug", "value": "~380", "unit": "ng/mL"},
      {"measurement": "Factor IX Protein Expression, Conc", "setting": "[2]; LNP NPA-029-1, 100 ug", "value": "3000 to 11000", "unit": "ng/mL"}
    ]},
    {"molecule": "Luc", "values": [
      {"measurement": "human EPO in serum, Avg.", "setting": "[3]", "value": 24.5, "unit": "pg/mL"},
      {"measurement": "human EPO in serum, Geometric-mean", "setting": "[3]", "value": 22.4, "unit": "pg/mL"},
      {"measurement": "human EPO Average Level in serum", "setting": "[4]; IM", "value": 0, "unit": "pg/mL"},
      {"measurement": "human EPO Average Level in serum", "setting": "[4]; SC", "value": 26.7, "unit": "pg/mL"},
      {"measurement": "human EPO in serum, Avg.", "setting": "[5]", "value": 37.2, "unit": "pg/mL"},
      {"measurement": "human EPO in serum, Geometric-mean", "setting": "[5]", "value": 29.2, "unit": "pg/mL"}
    ]},
    {"molecule": "B1", "values": [
      {"measurement": "human G-CSF protein production relative to 5-methylcytosine/pseudouridine modified human G-CSF mRNA", "setting": "[6]", "value": "increased human G-CSF protein production"},
      {"measurement": "innate immune recognition, cytokines (IFN-alpha)", "setting": "IFN-alpha", "value": "did not significantly increase cytokines"}
    ]},
    {"molecule": "B2", "values": [
      {"measurement": "increase in neutrophil count above control", "setting": "neutrophil count", "value": "no pharmacologic effect on neutrophil counts"}
    ]},
    {"molecule": "B3", "values": [
      {"measurement": "TNF-alpha Expression", "setting": "[7]", "value": 11.1, "unit": "pg/mL"},
      {"measurement": "better ratio of protein/cytokine production than natural G-CSF mRNA, IFN-alpha", "setting": "[7]", "value": 100, "unit": "fold"},
      {"measurement": "better ratio of protein/cytokine production than natural G-CSF mRNA, TNF-alpha", "setting": "[7]", "value": 27, "unit": "fold"},
      {"measurement": "G-CSF", "setting": "[8]", "value": 432, "unit": "pg/mL"},
      {"measurement": "IFN-alpha", "setting": "[9]", "value": 1, "unit": "pg/mL"}
    ]},
    {"molecule": "B4", "values": [
      {"measurement": "IFNbeta", "setting": "[10]", "value": 3, "unit": "pg/mL"},
      {"measurement": "PC Ratio", "setting": "Female BALB/C mice", "value": 748}
    ]}
  ]
}
